Laboratory results from US20050043515A1, “Tobacco-specific nitrosamine detection assays and reagents” (priority 2003, published 2005).
Like-named read-outs stand apart in the source and are kept apart here.

Key:
[1] = system: monoclonal antibody 245B5; experiment: Competitive ELISA for NNK using monoclonal antibody 245B5; assay type: binding, mice; details: for % Crossreactivity: NNK amount for 50% inhibition divided by test compound amount, x100
Procedure: (§1) Microtiter plates (Nunc, Maxisorp) were coated by adding 100 μl per well of goat anti mouse IgG Fc specific (Jackson Immunoresearch, West Grove, Pa.) at 2.5 micrograms per milliliter (μg/ml) in phosphate buffered saline (Sigma Chemical Co.) and allowing the solution to sit overnight. The next day, contents were discarded and unreacted sites on the plastic wells were blocked with 300 μl per well of PBT (1% Bovine Serum Albumen (Sigma Chemical Co.), 0.05% Tween 20 (Sigma Chemical Co.) in PBS) for one hour. Contents were again discarded and 100 μl was added per well of a 1/10,000 dilution of hybridoma culture supernatant of monoclonal antibody 245B5. Wells were then incubated one hour at room temperature. Contents of the wells were again discarded and wells washed three times with PBS with 0.05% Tween (PT). Aliquots containing 50 μl of test compounds diluted in PBT were added to the wells in duplicate, followed in less than five minutes by 50 μl of NNK conjugated to horseradish peroxidase (5 μg of horseradish peroxidase/ml). Wells were incubated for one hour at room temperature, after which they were washed six times with PT and excess liquid removed by tapping. A 100 μl aliquot of a peroxide/3,3′,5,5′-tetramethylbenzidine substrate/chromagen (Catalog # TMBUS, Moss Corporation, Pasadena, Md.) was added. Color was read at 650 nm after fifteen minutes in a microplate reader (SpectraMax Plus, Molecular Devices, Sunnyvale, Calif.). The presence of a TSNA reactive with monoclonal antibody 245B5 caused a decrease in the strength of the color signal.
TSNAs were purchased from Toronto Research Chemicals. […] The y-axis is B/Bo, which is the amount of color at 650 nm obtained in the presence of the compound divided by the amount of color obtained when no competing compound is present.
(§2) The affinity of monoclonal antibodies 245B5 and 245J15 to the N-nitroso group on compounds was evaluated using the immunoassay of Example 3 and the immunoassay of Example 4. Parent compounds lacking nitroso groups but having secondary amine groups were run in the immunoassays as previously described. Identical immunoassays were also conducted for compounds that were identical with the parent compounds except that for the addition of the nitroso group to the secondary amine in the compounds. NNN, NAT, and NAB are all examples of TSNAs. N-nitrosopyrollidine may be found in tobacco smoke, but is not a TSNA.

[2] = system: monoclonal antibody 245J15; experiment: Competitive ELISA for total TSNAs using monoclonal antibody 245J15; assay type: binding, mice
Procedure: as §1
A total TSNA assay was developed for monoclonal antibody 245J15.
Each analyte was obtained from the source identified in Example 3.
as §2

[3] = system: rabbit antisera raised against NNK oxime derivative conjugates; assay type: binding, New Zealand White Rabbits; details: one rabbit; for Crossreactivity at the 50% point: relative to NNK
Procedure: NNK oxime derivatives were prepared and conjugated to KLH and BSA as described in Example 1. The conjugates were diluted in complete Freund's adjuvant to prepare a 1:1 solution of conjugate:adjuvant. New Zealand White Rabbits (6 to 12 months of age) were immunized by injection with the suspension. Rabbits received two booster injections of the same conjugate/adjuvant at one month and two months after initial injection. At three months time, point test bleeds were tested against microtiter plates coated with oxime-derivatized NNK prepared and conjugated to ovalbumen using procedures described in Example 1.
All of these rabbits were used individually to produce competitive assays, as described in Example 3, with the exceptions that a 1:250,000 dilution of antisera in PBT was substituted for the supernatant and the microtiter plates were first coated with goat anti rabbit IgG (Catalog # 115-005-008, Jackson Immunoresearch, West Grove, Pa.) rather than goat anti mouse IgG. All other details were the same.

[4] = 0.5 B/Bo, read-out: 50% Inhibition at: M
[5] = Antibody 245J15, NNK amount for 50% inhibition divided by test compound amount, x100
[6] = Antibody 245J15, read-out: 50% Inhibition at: M
[7] = Table 3, parent compound vs N-nitroso derivative, read-out: 50% Inhibition at
[8] = Table 4, Antibody 245J15, parent compound vs N-nitroso derivative, read-out: 50% Inhibition at

Row | Structure (SMILES) | 50% Inhibition at: Ppm ([1]; 0.5 B/Bo) | IC50 [1, 4] | 50% Inhibition at: ppm ([2]; Antibody 245J15) | % Crossreactivity [2, 5] | IC50 [2, 6] | IC50 [1, 7] | IC50 [2, 8] | further results
1 | CN1CCCC1c1cccnc1 (centres unmarked) [Nicotine] | 16.88 Ppm | 100 µM | 80.9 ppm | 0.074% | 500 µM | – | – | % Crossreactivity ([2]; Antibody 245J15, NNK amount for 50% inhibition divided by test compound amount, x100, listed as Nicotine (Acros)): 0.034%; 50% Inhibition at: ppm ([2]; Antibody 245J15, listed as Nicotine (Acros)): 178.9 ppm; IC50 ([2]; Antibody 245J15, listed as Nicotine (Acros), read-out: 50% Inhibition at: M): 1100 µM; Crossreactivity at the 50% point [3]: 0.024%
2 | Cl.OC1CCNCC1 [4-Hydroxypiperidine hydrochloride] | – | – | 12282.5 ppm | 0% | 89000 µM | – | – | –
3 | C1=CCC(c2cccnc2)NC1 (centres unmarked) [Anatabine] | 311.06 Ppm | 1900 µM | 8.3 ppm | 0.7% | 52 µM | 1900 µM | 52 µM | % Crossreactivity [1]: 0.0004%
4 | O=C(O)C1CCCCN1 (racemic) [DL-Pipecolinic Acid] | – | – | 13630.2 ppm | 0% | – | – | – | –
5 | CN1CCCC1CCO (centres unmarked) [1-Methyl-2-pyrrolidineethanol] | – | – | 1264.4 ppm | 0.005% | 9800 µM | – | – | –
6 | OC1CCNC1 (centres unmarked) [3-Pyrrolidinol] | – | – | 5373.9 ppm | 0.001% | 62000 µM | – | – | –
7 | O=NN1CCCC1 [N-Nitrosopyrrolidine] | – | – | – | – | – | 3000 µM | 5000 µM | –
8 | C1CCNC1 [Pyrrolidine] | – | – | – | – | – | 20000 µM | 20000 µM | –
9 | CN(N=O)C(CCC=O)c1cccnc1 (centres unmarked) [NNA, 4-(methylnitrosamino)4-(3-pyridyl)butanal] | 18.00 Ppm | 87 µM | 0.56 ppm | 10.8% | 2.7 µM | – | – | % Crossreactivity [1]: 0.0075%
10 | CCCCN(CCCC)N=O [N-Nitrosodibutylamine] | – | – | – | – | – | 16000 µM | 10000 µM | –
11 | O=C(O)C1CCCNC1 (centres unmarked) [Nipecotic Acid] | – | – | 24193.5 ppm | – | – | – | – | –
12 | O=NN1CCCC[C@H]1c1cccnc1 [NAB, N-nitrosoanabasine] | 1.35 Ppm | 7.1 µM | 0.72 ppm | 8.3% | 3.8 µM | 7.1 µM | 3.8 µM | Crossreactivity at the 50% point [3]: 1.6%
13 | c1cncc([C@@H]2CCCN2)c1 [Nornicotine] | >200 Ppm | > 1000 µM | 223.1 ppm | 0.027% | 1500 µM | > 1000 µM | 1500 µM | % Crossreactivity [1]: <0.0002%
14 | c1ccncc1 [Pyridine] | – | – | – | – | – | – | – | 50% Inhibition at: ppm [2]: 946.9 ppm; % Crossreactivity [2]: 0.006%; IC50 ([2]; read-out: 50% Inhibition at: M): 12000 µM
15 | Cl.OC1CCCNC1 (centres unmarked) [3-Hydroxypiperidine hydrochloride] | – | – | 17492.7 ppm | 0% | – | – | – | –
16 | CN1CCC(O)C1 (centres unmarked) [1-Methyl-3-pyrrolidinol] | – | – | 92.7 ppm | 0.065% | 920 µM | – | – | –
17 | CCCCNCCCC [Dibutylamine] | – | – | – | – | – | > 50000 µM | > 50000 µM | –
18 | OC[C@@H]1CCCN1 [(S)-(+)-2-Pyrrolidine-methanol] | – | – | 996.7 ppm | 0.006% | 9900 µM | – | – | –
19 | CN1CCCC[C@H]1c1cccnc1 [Methyl Anabasine] | 271.90 Ppm | 1600 µM | 30.2 ppm | 0.2% | 180 µM | – | – | % Crossreactivity [1]: 0.0005%
20 | CN(CCCC(=O)c1cccnc1)N=O [NNK, 4-(methylnitrosamino)-1-(3-pyridyl)-1-butanone] | 0.00135 Ppm | 0.0065 µM | 0.06 ppm | 100% | 0.29 µM | – | – | % Crossreactivity [1]: 100.00%; sensitivity at the 50% inhibition point ([3]; 1:250,000 dilution of antisera): 0.1 μg NNK per ml
21 | OC[C@H]1CCCN1 [(R)-(−)-2-Pyrrolidine-methanol] | – | – | 1898.1 ppm | 0.003% | 19000 µM | – | – | –
22 | c1cncc([C@@H]2CCCCN2)c1 [Anabasine] | >200 Ppm | > 1000 µM | 214.9 ppm | 0.028% | 1300 µM | > 1000 µM | 1300 µM | % Crossreactivity [1]: <0.0002%
23 | CN(CCCC(O)c1cccnc1)N=O (centres unmarked) [NNAL, 4-(methylnitrosamino)-1-(3-pyridyl)-1-butanol] | 0.06923 Ppm | 0.33 µM | 0.05 ppm | 129.6% | 0.22 µM | – | – | –
24 | O=C1CCCN1 [2-Pyrrolidinone] | – | – | 2594 ppm | 0.002% | 30000 µM | – | – | –
25 | C1CCNCC1 [Piperidine] | – | – | 1300.3 ppm | 0.005% | 15000 µM | – | – | –
26 | O=NN1CC=CC[C@H]1c1cccnc1 [NAT, N-nitrosoanatabine] | 0.35 Ppm | 1.8 µM | 0.13 ppm | 46.3% | 0.68 µM | 1.8 µM | 0.68 µM | Crossreactivity at the 50% point [3]: 1.7%
27 | CN1CCCCC1CO (centres unmarked) [1-Methyl-2-piperidinemethanol] | – | – | 781.4 ppm | 0.008% | 6000 µM | – | – | –
